Results as given in ChEMBL document CHEMBL1123826, “Nitrogen bridgehead compounds. 66. Bronchodilator nitrogen bridgehead compounds with a pyrimidinone moiety” (J Med Chem, 1987).

Experiments:
Format in all cases: functional
Cavia porcellus [1] = species: Cavia porcellus; experiment: Bronchodilator activity against serotonin-induced spasm in guinea pig; details: read-out: ID50 (the source's name)
Cavia porcellus [2] = species: Cavia porcellus; experiment: Bronchodilator activity against acetylcholine-induced spasm in guinea pig; details: read-out: ID50 (the source's name)
Cavia porcellus [3] = species: Cavia porcellus; experiment: Bronchodilator activity against histamine-induced spasm in guinea pig; details: read-out: ID50 (the source's name)
Homo sapiens [4] = species: Homo sapiens; experiment: Compound was tested for Bronchodilator activity against isolated human bronchus contracted by carbachol
[5] = Relative potency is ratio of IC50 of theophylline / IC50 was determined
Cavia porcellus [6] = experiment: Compound was tested for Bronchodilator activity against serotonin-induced spasm in guinea pig by Konzett-Rossler test; dose administered by intraduodenal route.; details: read-out: ID50 (the source's name)
Cavia porcellus [7] = experiment: Compound was tested for Bronchodilator activity against histamine-induced spasm in guinea pig by Konzett-Rossler test; dose administered by intraduodenal route.; details: read-out: ID50 (the source's name)
Cavia porcellus [8] = experiment: Compound was tested for Bronchodilator activity against acetylcholine-induced spasm in guinea pig by Konzett-Rossler test; dose administered by intraduodenal route.; details: read-out: ID50 (the source's name)
Cavia porcellus [9] = species: Cavia porcellus; experiment: […] activity was evaluated by inhibition of BaCl2 induced spasm in isolated guinea pig ileum
Cavia porcellus [10] = species: Cavia porcellus; experiment: […] activity was evaluated by inhibition of histamine induced spasm in isolated guinea pig ileum
[11] = Ratio of pA2 to pD2 was determined on isolated guinea pig trachea
Cavia porcellus [12] = species: Cavia porcellus; experiment: […] activity was evaluated by inhibition of serotonin induced spasm in isolated guinea pig ileum
Cavia porcellus [13] = species: Cavia porcellus; experiment: […] activity was evaluated by inhibition of nicotinate induced spasm in isolated guinea pig ileum
Cavia porcellus [14] = species: Cavia porcellus; experiment: […] activity was evaluated by inhibition of acetylcholine induced spasm in isolated guinea pig ileum
Cavia porcellus [15] = species: Cavia porcellus; experiment: Compound was tested for Anticholenergic activity on isolated guinea pig trachea contracted by carbachol
Cavia porcellus [16] = experiment: Compound was tested for Bronchodilator activity against serotonin-induced spasm in guinea pig by Konzett-Rossler test; dose administered by intraduodenal route; details: read-out: ID50 (the source's name)
Homo sapiens [17] = species: Homo sapiens; experiment: compound was tested for Bronchodilator activity against isolated human bronchus contracted by carbachol
[18] = Homo sapiens, Bronchus, read-out: IC50

Structure (SMILES)	ED50 (Cavia porcellus [1]) [µmol/kg]	ED50 (Cavia porcellus [2]) [µmol/kg]	ED50 (Cavia porcellus [3]) [µmol/kg]	also measured
CC1CCc2nc3c(c(=O)n2C1)CCC3 (centres undefined)	39.6	17.6	7.2	–
COC(=O)c1ccc2nc3n(c(=O)c2c1)CCCC3	12.3	> 32	16.8	–
Cc1ccc2nc3n(c(=O)c2c1)CCC3	11.3	29	29.8	–
Cc1ccn2c(=O)c3c(nc2c1)CCCC3	21.9	37.7	20.4	–
CCOC(=O)c1ccc2c(=O)n3c(nc2c1)CCC3	> 32	> 32	14.4	–
O=c1c2c(nc3n1CCC3)CCC2	82.5	> 100	46.1	–
Cl.O=c1c2c(nc3ccccn13)CCC2	17.6	32.4	10.5	IC50 (Homo sapiens [4]): 879 uM l-1; Relative potency [5]: 0.17
Cc1cccc2c(=O)n3c(nc12)CCCCC3	–	–	–	ED50 (Cavia porcellus [6]): > 32 µmol/kg; ED50 (Cavia porcellus [7]): > 32 µmol/kg; ED50 (Cavia porcellus [8]): > 32 µmol/kg
CCc1c(C)nc2cccc(C)n2c1=O	9.6	25.6	10.2	IC50 (Homo sapiens [4]; [18]): 71.8 µM; Relative potency [5]: 2.1
CC1CCn2c1nc1ccccc1c2=O (centres undefined)	29.4	45.8	27.3	–
COC(=O)c1ccc2nc3n(c(=O)c2c1)CCCCC3	–	–	–	ED50 (Cavia porcellus [6]): 32 µmol/kg; ED50 (Cavia porcellus [7]): 32 µmol/kg; ED50 (Cavia porcellus [8]): > 32 µmol/kg
O=c1c2c(nc3n1CCCCC3)CCC2	–	–	–	IC50 (Cavia porcellus [9]): 113 uM l-1; IC50 (Cavia porcellus [10]): > 100 µM; Ratio [11]: 1.23; IC50 (Cavia porcellus [12]): 112 uM l-1; IC50 (Cavia porcellus [13]): 75 µM; IC50 (Homo sapiens [4]): 15.2 µM; IC50 (Cavia porcellus [14]): 2.53 µM; Relative potency [5]: 9.93; pD2 (Cavia porcellus [15]): 5.37; Kb (Cavia porcellus [15]; read-out: pA2 (converted)): 0.229 µM
O=C(O)c1ccc2nc3n(c(=O)c2c1)CCC3	> 100	> 100	215	–
O=c1c2c(nc3n1CCCC3)CCCCC2	12.7	11.8	15.2	–
Cc1ccc2c(=O)n3c(nc2c1)CCCCC3	39.4	76	25.6	–
O=c1c2ccccc2nc2n1CCC2	21.2	37.7	16.9	–
O=c1c2c(nc3n1CCC3)CCCCCC2	57.1	100	164	–
Cl.O=c1c2c(nc3ccccn13)CCCC2	16.7	18.2	6.1	IC50 (Homo sapiens [4]): 127 uM l-1; Relative potency [5]: 1.18

Structure (SMILES)	ED50 (Cavia porcellus [1]) [µmol/kg]	ED50 (Cavia porcellus [2]) [µmol/kg]	ED50 (Cavia porcellus [3]) [µmol/kg]	also measured
Cc1cccn2c(=O)c3c(nc12)CCC3	11.2	21.6	10.2	IC50 (Homo sapiens [4]; [18]): 97.7 µM; Relative potency [5]: 1.54
O=c1c2c(nc3n1CCC3)CCCC2	29.8	51.1	24.1	–
O=c1c2c(nc3ccccn13)CCCCCC2	49	53.3	32.7	–
CCOC(=O)c1c[n+](C)c2n(c1=O)C(C)CCC2 (centres undefined) [RIMAZOLIUM METILSULFATE]	14	31	8	–
Cc1ccc2nc3n(c(=O)c2c1)CCCCC3	44.7	16	25.3	–
CCOC(=O)c1ccc2c(=O)n3c(nc2c1)CCCC3	> 32	> 32	15.1	–
COc1ccccc1.Cn1c(=O)c2nc[nH]c2n(C)c1=O	10	22	10	IC50 (Homo sapiens [4]): 151 uM l-1; Relative potency [5]: 1
CCc1c(C)nc2ccccn2c1=O.Cl	12	29.4	8.6	IC50 (Homo sapiens [4]): 127 uM l-1; Relative potency [5]: 1.19
CCOC(=O)c1ccc2c(=O)n3c(nc2c1)CCCCC3	–	–	–	ED50 (Cavia porcellus [16]): 10 µmol/kg; ED50 (Cavia porcellus [7]): 32 µmol/kg; ED50 (Cavia porcellus [8]): 24.5 µmol/kg
O=c1c2c(nc3n1CCCC3)CCCC2	33.3	44.5	22	–
O=C(O)c1ccc2nc3n(c(=O)c2c1)CCCCC3	> 100	> 100	> 100	–
O=c1c2ccccc2nc2n1CCCCCC2	> 100	61.8	61.8	–
O=c1nc2n(c3c1CCC3)CCC2	> 100	> 100	> 100	–
CC1CCc2nc3ccccc3c(=O)n21 (centres undefined)	12.2	48.2	10.4	–
CC1CCn2c(nc3c(c2=O)CCC3)C1 (centres undefined)	22.5	56.4	18.9	Relative potency [5]: 1.07; IC50 (Homo sapiens [17]): 141 uM l-1
O=C(O)c1ccc2nc3n(c(=O)c2c1)CCCC3	> 100	> 100	> 100	–
O=c1c2c(nc3n1CCCCCC3)CCCC2	44.6	58.5	27.1	–
O=c1nc2n(c3c1CCCC3)CCC2	107	> 100	> 100	–
